Data on 12 compounds can be found in patent publication US4443626A, “2,3-Dihydro-indene derivatives” (Hisamitsu Pharmaceutical Co., Inc., priority 1982, dated 1984).

In one series the test system is passive Arthus reaction. The experiment in a line: Effect on passive Arthus reaction in rats (hind paw swelling). Particulars: Rattus norvegicus, po, 3 h, read-out: Swelling inhibiting ratio; for inhibition in vivo at 100 mg/kg: 100 mg/kg orally, one hour before induction, hind paw volume measured three hours after induction, anti BSA rabbit serum / BSA, relative to control group. The series is classed as in vivo, rat (Wistar strain, male). The method, then:
Effect on passive Arthus reaction in rats
The rats which had been fasted for 18 hours were sensitized by injecting 0.3 ml of a 10% solution of an anti BSA rabbit serum (precipitation titer, 32 times) to them at the tail vein. […] On the other hand, only the vehicle was administered to the remainder of the test animals. [formula]

Another series has as its system mice. The experiment in a line: Test for acute toxicity on mice. The series is classed as in vivo. The note with it: one week after the administration, dead/tested. The text has this:
Test for acute toxicity on mice
Groups each consisting of 6 male mice of ddY strain weighing between 22 and 26 g were used in this experiment.
Suspensions of the test compounds and indomethacin as the control in an 0.5% aqueous solution of tragacanth were orally administered respectively to the test animals, after which the test animals had been observed for a week to find the lethality thereof.

As to `O=C(O)CCCCC1Cc2c(Cl)cccc2C1=O` (stereo not shown) [Example 14, 4-chloro-1-oxo-2,3-dihydro-2-indene valeric acid], the inhibition in vivo at 100 mg/kg in the series with passive Arthus reaction was 18.6%. Besides, the Lethality with mice (2,000 mg/kg orally) is 0/6. On to `COc1ccc2c(c1)c(CC(=O)O)c(C)n2C(=O)c1ccc(Cl)cc1` [Indomethacin, indomethacin, reference compound], for which, in the series on passive Arthus reaction, the inhibition in vivo at 5 mg/kg was determined as 8.1%. In addition, the Lethality in the series with mice (50 mg/kg orally) is 6/6. As to `O=C(O)CCCC1Cc2c(Cl)cccc2C1=O` (stereo not shown) [Example 11, 4-chloro-1-oxo-2,3-dihydro-2-indene butyric acid], the inhibition in vivo at 100 mg/kg in the series with passive Arthus reaction turned out to be 13.9%. Turning to `O=C(O)CCCC1Cc2ccc(Cl)cc2C1=O` (stereo not shown) [Example 2, 6-chloro-1-oxo-2,3-dihydro-2-indene butyric acid], in the series on passive Arthus reaction, the inhibition in vivo at 100 mg/kg came out at 37.7%. Further, in the series with mice (2,000 mg/kg orally), the Lethality is on record as 2/6. On to `O=C(O)CCC1Cc2ccc(F)cc2C1=O` (stereo not shown) [Example 6, 6-fluoro-1-oxo-2,3-dihydro-2-indene propionic acid], for which, in the series with passive Arthus reaction, the inhibition in vivo at 100 mg/kg amounted to 39.4%. Also, the Lethality in the series on mice (500 mg/kg orally) is 0/6; in the series on mice (1,000 mg/kg orally) it was 0/6; with mice (2,000 mg/kg orally) it was 2/6. `O=C(O)CCCC1Cc2ccc(F)cc2C1=O` (stereo not shown) [Example 1, 6-fluoro-1-oxo-2,3-dihydro-2-indene butyric acid]: in the series with passive Arthus reaction, the inhibition in vivo at 100 mg/kg is 26.7%. Besides, the Lethality in the series with mice (2,000 mg/kg orally) is recorded as 1/6. Take `O=C(O)CCCCC1Cc2ccc(Cl)cc2C1=O` (stereo not shown) [Example 16, 6-chloro-1-oxo-2,3-dihydro-2-indene valeric acid]: in the series on passive Arthus reaction, the inhibition in vivo at 100 mg/kg came out at 16.2%. In the case of `O=C(O)CCC1Cc2c(F)cccc2C1=O` (stereo not shown) [Example 5, 4-fluoro-1-oxo-2,3-dihydro-2-indene propionic acid], in the series on passive Arthus reaction, the inhibition in vivo at 100 mg/kg was found to be 41.7%. Also, the Lethality with mice (2,000 mg/kg orally) is on record as 2/6. As for `O=C(O)CCCCC1Cc2cc(Cl)ccc2C1=O` (stereo not shown) [Example 15, 5-chloro-1-oxo-2,3-dihydro-2-indene valeric acid], in the series with passive Arthus reaction, the inhibition in vivo at 100 mg/kg is 35.3%. In the series on mice (2,000 mg/kg orally), the Lethality is given as 0/6. The matching figures for `O=C(O)CCCC1Cc2c(Cl)cc(Cl)cc2C1=O` (stereo not shown) [Example 13, 4,6-dichloro-1-oxo-2,3-dihydro-2-indene butyric acid]: 22.5% and 1/6. Take `O=C(O)CCC1Cc2cc(Cl)ccc2C1=O` (stereo not shown) [Example 8, 5-chloro-1-oxo-2,3-dihydro-2-indene propionic acid]: the inhibition in vivo at 100 mg/kg with passive Arthus reaction is 17.5%. On the same count and under the same terms, as for `O=C(O)CCC1Cc2ccc(Cl)cc2C1=O` (stereo not shown) [Example 3, 6-chloro-1-oxo-2,3-dihydro-2-indene propionic acid], the figure is 13.7%.
